Source: patent US8703701B2 (Indiana University Research and Technology Corporation, priority 2009, dated 2014)
Starred links: 1 amine or outer side, 2 acyl side, 3 side chain; linkers in the order of their positions; H or OH if unused. Non-standard residues stand in square brackets, D forms with d. Residues, ends and D or L forms follow the SMILES beside them. Groups on a side chain read outwards from the residue. *: point of attachment. γGlu = O=C(O)[C@H](CCC(=O)[*:2])N[*:1]; Stearoyl = CCCCCCCCCCCCCCCCCC(=O)*; Palmitoyl = CCCCCCCCCCCCCCCC(=O)*; Myristoyl = CCCCCCCCCCCCCC(=O)*; Aib = CC(C)(N)C(=O)O

Key:
GLP-1 receptor = molecular target: T1, GLP-1 receptor (Homo sapiens, UniProt P43220); assay: cAMP induction, firefly luciferase reporter assay, GLP-1 receptor; assay type: cell-based; details: for Activity at GLP-1 Receptor % Relative Activity: compared to native GLP-1
T1 construct: expressed in transfected cells; host or cells: HEK293
Method: (§1) The ability of each peptide to induce cAMP was measured in a firefly luciferase-based reporter assay.
(§2) At the end of the incubation, 100 μL of LucLite luminescence substrate reagent (Perkin Elmer, Wellesley, Mass.) were added to each well. The plate was shaken briefly, incubated 10 min in the dark and light output was measured on MicroBeta-1450 liquid scintillation counter (Perkin-Elmer, Wellesley, Mass.).

glucagon receptor = molecular target: T2, glucagon receptor (Homo sapiens, UniProt P47871); assay: cAMP induction, firefly luciferase reporter assay, glucagon receptor; assay type: cell-based; details: for Activity at Glucagon Receptor % Relative Activity: compared to native glucagon; for EC50: Activity at Glucagon Receptor EC50 [pM]
T2 construct: expressed in transfected cells; host or cells: HEK293
Method: as §1, §2

[1] = Activity at GLP-1 Receptor EC50 (nM), Table 2B
[2] = Activity at GLP-1 Receptor EC50 [pM], Table 3B

T2 sequence (P47871 26-477): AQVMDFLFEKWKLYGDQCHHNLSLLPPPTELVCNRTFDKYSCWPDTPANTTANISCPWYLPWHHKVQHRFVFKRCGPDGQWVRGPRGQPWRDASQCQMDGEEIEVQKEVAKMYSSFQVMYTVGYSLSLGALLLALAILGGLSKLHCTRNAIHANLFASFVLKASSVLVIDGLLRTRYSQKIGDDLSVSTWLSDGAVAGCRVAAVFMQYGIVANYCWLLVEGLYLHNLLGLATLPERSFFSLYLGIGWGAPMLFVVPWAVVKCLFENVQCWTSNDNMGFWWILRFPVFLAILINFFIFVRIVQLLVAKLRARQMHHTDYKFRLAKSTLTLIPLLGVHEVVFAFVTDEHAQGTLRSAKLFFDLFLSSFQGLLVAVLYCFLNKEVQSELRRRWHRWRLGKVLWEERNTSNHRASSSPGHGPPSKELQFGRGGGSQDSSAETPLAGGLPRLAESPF
T1 sequence (P43220 24-463): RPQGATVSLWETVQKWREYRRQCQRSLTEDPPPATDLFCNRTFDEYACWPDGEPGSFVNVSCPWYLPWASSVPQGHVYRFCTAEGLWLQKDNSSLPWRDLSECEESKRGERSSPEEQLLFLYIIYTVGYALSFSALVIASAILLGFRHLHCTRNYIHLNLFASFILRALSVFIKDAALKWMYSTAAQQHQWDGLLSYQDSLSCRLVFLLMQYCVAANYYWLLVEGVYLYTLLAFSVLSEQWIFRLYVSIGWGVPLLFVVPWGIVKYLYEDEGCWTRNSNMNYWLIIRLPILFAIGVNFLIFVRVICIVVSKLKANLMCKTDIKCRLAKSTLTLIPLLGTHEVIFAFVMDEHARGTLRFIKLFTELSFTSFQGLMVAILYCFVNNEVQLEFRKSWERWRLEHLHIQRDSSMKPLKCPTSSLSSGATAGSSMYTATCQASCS

| SMILES | Activity at GLP-1 Receptor % Relative Activity (GLP-1 receptor; Table 2B) [%] | Activity at Glucagon Receptor % Relative Activity (glucagon receptor; Table 2B) [%] | EC50 (GLP-1 receptor; [1]) [nM] | EC50 (GLP-1 receptor; [2]) [nM] | Activity at GLP-1 Receptor % Relative Activity (GLP-1 receptor; Table 3B) [%] | Activity at Glucagon Receptor % Relative Activity (glucagon receptor; Table 3B) [%] | EC50 (glucagon receptor; Table 3B) [pM] |
| --- | --- | --- | --- | --- | --- | --- | --- |
| CCCCCCCCCCCCCCCC(=O)N[C@@H](CCC(=O)NCCCC[C@H](NC(=O)[C@H](CC(=O)O)NC(=O)[C@H](CO)NC(=O)[C@@H](NC(=O)[C@H](Cc1ccccc1)NC(=O)[C@@H](NC(=O)CNC(=O)[C@H](CCC(N)=O)NC(=O)[C@@H](CO)NC(=O)[C@@H](N)Cc1c[nH]cn1)[C@@H](C)O)[C@@H](C)O)C(=O)N[C@@H](CO)C(=O)N[C@@H](CCCCN)C(=O)N[C@@H](Cc1ccc(O)cc1)C(=O)N[C@@H](CC(C)C)C(=O)N[C@@H](CC(=O)O)C(=O)NC(C)(C)C(=O)N[C@@H](CCCCN)C(=O)N[C@@H](CCCNC(=N)N)C(=O)N[C@@H](C)C(=O)N[C@@H](CCCCN)C(=O)N[C@@H](CCC(=O)O)C(=O)N[C@@H](Cc1ccccc1)C(=O)N[C@H](C(=O)N[C@@H](CS)C(=O)N[C@@H](Cc1c[nH]c2ccccc12)C(=O)N[C@@H](CC(C)C)C(=O)N[C@@H](CC(C)C)C(=O)N[C@@H](CC(=O)O)C(=O)N[C@H](C(N)=O)[C@@H](C)O)C(C)C)C(=O)O [compound 62] (H-H[dS]QGTFTSDK([γGlu-Palmitoyl])SKYLD[Aib]KRAKEFVCWLLDT-NH2; N-terminus assumed) | 246 | 113 |  |  |  |  |  |
| CCCCCCCCCCCCCCCC(=O)N[C@@H](CCC(=O)N[C@@H](CCC(=O)NCCCC[C@H](NC(=O)[C@H](CC(=O)O)NC(=O)[C@H](CO)NC(=O)[C@@H](NC(=O)[C@H](Cc1ccccc1)NC(=O)[C@@H](NC(=O)CNC(=O)[C@H](CCC(N)=O)NC(=O)[C@@H](CO)NC(=O)[C@@H](N)Cc1c[nH]cn1)[C@@H](C)O)[C@@H](C)O)C(=O)N[C@@H](CO)C(=O)N[C@@H](CCCCN)C(=O)N[C@@H](Cc1ccc(O)cc1)C(=O)N[C@@H](CC(C)C)C(=O)N[C@@H](CC(=O)O)C(=O)NC(C)(C)C(=O)N[C@@H](CCCCN)C(=O)N[C@@H](CCCNC(=N)N)C(=O)N[C@@H](C)C(=O)N[C@@H](CCCCN)C(=O)N[C@@H](CCC(=O)O)C(=O)N[C@@H](Cc1ccccc1)C(=O)N[C@H](C(=O)N[C@@H](CS)C(=O)N[C@@H](Cc1c[nH]c2ccccc12)C(=O)N[C@@H](CC(C)C)C(=O)N[C@@H](CC(C)C)C(=O)N[C@@H](CC(=O)O)C(=O)N[C@H](C(N)=O)[C@@H](C)O)C(C)C)C(=O)O)C(=O)O [compound 63] (H-H[dS]QGTFTSDK([γGlu-γGlu-Palmitoyl])SKYLD[Aib]KRAKEFVCWLLDT-NH2; N-terminus assumed) | 345 | 115 | 0.02 |  |  |  |  |
| CC(C)C[C@H](NC(=O)[C@H](Cc1c[nH]c2ccccc12)NC(=O)[C@H](CS)NC(=O)[C@@H](NC(=O)[C@H](Cc1ccccc1)NC(=O)[C@H](CCC(=O)O)NC(=O)[C@H](CCCCN)NC(=O)[C@H](C)NC(=O)[C@H](C)NC(=O)[C@H](CCCCN)NC(=O)C(C)(C)NC(=O)[C@H](CC(=O)O)NC(=O)[C@H](CC(C)C)NC(=O)[C@H](Cc1ccc(O)cc1)NC(=O)[C@H](CCCCN)NC(=O)[C@H](CO)NC(=O)[C@H](Cc1ccc(O)cc1)NC(=O)[C@H](CC(=O)O)NC(=O)[C@H](CO)NC(=O)[C@@H](NC(=O)[C@H](Cc1ccccc1)NC(=O)[C@@H](NC(=O)CNC(=O)[C@H](CCC(N)=O)NC(=O)C(C)(C)NC(=O)[C@@H](N)Cc1c[nH]cn1)[C@@H](C)O)[C@@H](C)O)C(C)C)C(=O)N[C@@H](CC(C)C)C(=O)N[C@@H](CC(=O)O)C(=O)N[C@H](C(N)=O)[C@@H](C)O [compound 64] (H-H[Aib]QGTFTSDYSKYLD[Aib]KAAKEFVCWLLDT-NH2; N-terminus assumed) | 308 | 79 | 0.012 |  |  |  |  |
| CSCC[C@H](NC(=O)[C@H](CC(C)C)NC(=O)[C@H](Cc1c[nH]c2ccccc12)NC(=O)[C@H](CCC(N)=O)NC(=O)[C@@H](NC(=O)[C@H](Cc1ccccc1)NC(=O)[C@H](CCC(=O)O)NC(=O)[C@H](CCCCN)NC(=O)[C@H](C)NC(=O)[C@H](CCCNC(=N)N)NC(=O)[C@H](CCCCN)NC(=O)[C@H](CCC(=O)O)NC(=O)[C@H](CC(=O)O)NC(=O)[C@H](CC(C)C)NC(=O)[C@H](Cc1ccc(O)cc1)NC(=O)[C@H](CCCCN)NC(=O)[C@H](CO)NC(=O)[C@H](Cc1ccc(O)cc1)NC(=O)[C@H](CC(=O)O)NC(=O)[C@H](CO)NC(=O)[C@@H](NC(=O)[C@H](Cc1ccccc1)NC(=O)[C@@H](NC(=O)CNC(=O)[C@H](CCC(N)=O)NC(=O)[C@H](CO)NC(=O)[C@@H](N)Cc1c[nH]cn1)[C@@H](C)O)[C@@H](C)O)C(C)C)C(=O)N[C@@H](CC(N)=O)C(=O)N[C@H](C(N)=O)[C@@H](C)O [compound 65] | 64 | 264 |  |  |  |  |  |

Next, values leading:

| Activity at GLP-1 Receptor % Relative Activity (GLP-1 receptor; Table 2B) [%] | Activity at Glucagon Receptor % Relative Activity (glucagon receptor; Table 2B) [%] | EC50 (GLP-1 receptor; [1]) [nM] | EC50 (GLP-1 receptor; [2]) [nM] | Activity at GLP-1 Receptor % Relative Activity (GLP-1 receptor; Table 3B) [%] | Activity at Glucagon Receptor % Relative Activity (glucagon receptor; Table 3B) [%] | EC50 (glucagon receptor; Table 3B) [pM] | SMILES |
| --- | --- | --- | --- | --- | --- | --- | --- |
| 47 | 93 |  |  |  |  |  | CSCC[C@H](NC(=O)[C@H](CC(C)C)NC(=O)[C@H](Cc1c[nH]c2ccccc12)NC(=O)[C@H](CCC(N)=O)NC(=O)[C@@H](NC(=O)[C@H](Cc1ccccc1)NC(=O)[C@H](CC(=O)O)NC(=O)[C@H](CCCCN)NC(=O)[C@H](C)NC(=O)[C@H](CCCNC(=N)N)NC(=O)[C@H](CCCNC(=N)N)NC(=O)[C@H](CCC(=O)O)NC(=O)[C@H](CC(=O)O)NC(=O)[C@H](CC(C)C)NC(=O)[C@H](Cc1ccc(O)cc1)NC(=O)[C@H](CCCCN)NC(=O)[C@H](CO)NC(=O)[C@H](Cc1ccc(O)cc1)NC(=O)[C@H](CC(=O)O)NC(=O)[C@H](CO)NC(=O)[C@@H](NC(=O)[C@H](Cc1ccccc1)NC(=O)[C@@H](NC(=O)CNC(=O)[C@H](CCC(N)=O)NC(=O)[C@H](CO)NC(=O)[C@@H](N)Cc1c[nH]cn1)[C@@H](C)O)[C@@H](C)O)C(C)C)C(=O)N[C@@H](CC(N)=O)C(=O)N[C@H](C(N)=O)[C@@H](C)O [compound 67] |
|  |  |  | 0.005 | 440 | 325 |  | CCCCCCCCCCCCCCCC(=O)NCCCC[C@H](NC(=O)[C@H](CC(=O)O)NC(=O)[C@H](CO)NC(=O)[C@@H](NC(=O)[C@H](Cc1ccccc1)NC(=O)[C@@H](NC(=O)CNC(=O)[C@H](CCC(N)=O)NC(=O)C(C)(C)NC(=O)[C@@H](N)Cc1c[nH]cn1)[C@@H](C)O)[C@@H](C)O)C(=O)N[C@@H](CO)C(=O)N[C@@H](CCCCN)C(=O)N[C@@H](Cc1ccc(O)cc1)C(=O)N[C@@H](CC(C)C)C(=O)N[C@@H](CC(=O)O)C(=O)NC(C)(C)C(=O)N[C@@H](CCCNC(=N)N)C(=O)N[C@@H](C)C(=O)N[C@@H](C)C(=O)N[C@@H](CCC(N)=O)C(=O)N[C@@H](CC(=O)O)C(=O)N[C@@H](Cc1ccccc1)C(=O)N[C@H](C(=O)N[C@@H](CCC(N)=O)C(=O)N[C@@H](Cc1c[nH]c2ccccc12)C(=O)N[C@@H](CC(C)C)C(=O)N[C@@H](CCSC)C(=O)N[C@@H](CC(=O)O)C(=O)N[C@H](C(N)=O)[C@@H](C)O)C(C)C [compound 69] (H-H[Aib]QGTFTSDK(Palmitoyl)SKYLD[Aib]RAAQDFVQWLMDT-NH2; N-terminus assumed) |
|  |  |  | 0.004 | 500 | 709 | 6 | CCCCCCCCCCCCCC(=O)N[C@@H](CCC(=O)N[C@@H](CCC(=O)NCCCC[C@H](NC(=O)[C@H](CC(=O)O)NC(=O)[C@H](CO)NC(=O)[C@@H](NC(=O)[C@H](Cc1ccccc1)NC(=O)[C@@H](NC(=O)CNC(=O)[C@H](CCC(N)=O)NC(=O)C(C)(C)NC(=O)[C@@H](N)Cc1c[nH]cn1)[C@@H](C)O)[C@@H](C)O)C(=O)N[C@@H](CO)C(=O)N[C@@H](CCCCN)C(=O)N[C@@H](Cc1ccc(O)cc1)C(=O)N[C@@H](CC(C)C)C(=O)N[C@@H](CC(=O)O)C(=O)NC(C)(C)C(=O)N[C@@H](CCCNC(=N)N)C(=O)N[C@@H](C)C(=O)N[C@@H](C)C(=O)N[C@@H](CCC(N)=O)C(=O)N[C@@H](CC(=O)O)C(=O)N[C@@H](Cc1ccccc1)C(=O)N[C@H](C(=O)N[C@@H](CCC(N)=O)C(=O)N[C@@H](Cc1c[nH]c2ccccc12)C(=O)N[C@@H](CC(C)C)C(=O)N[C@@H](CCSC)C(=O)N[C@@H](CC(=O)O)C(=O)N[C@H](C(N)=O)[C@@H](C)O)C(C)C)C(=O)O)C(=O)O [compound 70] (H-H[Aib]QGTFTSDK([γGlu-γGlu-Myristoyl])SKYLD[Aib]RAAQDFVQWLMDT-NH2; N-terminus assumed) |
|  |  |  |  | 1222 | 975 | 4 | CCCCCCCCCCCCCCCCCC(=O)N[C@@H](CCC(=O)N[C@@H](CCC(=O)NCCCC[C@H](NC(=O)[C@H](CC(=O)O)NC(=O)[C@H](CO)NC(=O)[C@@H](NC(=O)[C@H](Cc1ccccc1)NC(=O)[C@@H](NC(=O)CNC(=O)[C@H](CCC(N)=O)NC(=O)C(C)(C)NC(=O)[C@@H](N)Cc1c[nH]cn1)[C@@H](C)O)[C@@H](C)O)C(=O)N[C@@H](CO)C(=O)N[C@@H](CCCCN)C(=O)N[C@@H](Cc1ccc(O)cc1)C(=O)N[C@@H](CC(C)C)C(=O)N[C@@H](CC(=O)O)C(=O)NC(C)(C)C(=O)N[C@@H](CCCNC(=N)N)C(=O)N[C@@H](C)C(=O)N[C@@H](C)C(=O)N[C@@H](CCC(N)=O)C(=O)N[C@@H](CC(=O)O)C(=O)N[C@@H](Cc1ccccc1)C(=O)N[C@H](C(=O)N[C@@H](CCC(N)=O)C(=O)N[C@@H](Cc1c[nH]c2ccccc12)C(=O)N[C@@H](CC(C)C)C(=O)N[C@@H](CCSC)C(=O)N[C@@H](CC(=O)O)C(=O)N[C@H](C(N)=O)[C@@H](C)O)C(C)C)C(=O)O)C(=O)O [compound 71] (H-H[Aib]QGTFTSDK([γGlu-γGlu-Stearoyl])SKYLD[Aib]RAAQDFVQWLMDT-NH2; N-terminus assumed) |
